For data set [1], the system named is lysosomal ATP in HeLa cells. The data set is described as follows: Lysosomal selectivity: colocalization with LysoTracker by one-photon and two-photon fluorescence microscopy. The format is cell-based, human. How it is done:
The present inventors treated HeLa cells with Compound 4 (R1═R2═H), which is a fluorescent probe, examined a fluorescence emission phenomenon through two-photon fluorescence microscopy, and assessed lysosomal selectivity by treating the cells also with LysoTracker (Life Technologies Corp.), which is a lysosome marker widely used to assess lysosomal selectivity, and then performing one-photon and two-photon fluorescence microscopy. The scale bar in FIG. 6 is 25 μm.
Each cell was cultured in Minimum Essential Medium with Earle's Balanced Salts (MEM/EBSS) of Hyclone™ GE Healthcare Life Sciences and a Dulbecco's modified Eagle's medium (DMEM), and the culture was carried out at 37° C. […] The cells prepared as thus were observed through two-photon fluorescence microscopy to obtain fluorescence images, and the two-photon fluorescence microscopic images were obtained at a 780 nm excitation wavelength and through a laser power of 4 mW respectively in the blue channel (440-490 nm), yellow channel (550-600 nm), and red channel (650-700 nm). […]
The experiment was repeated with LysoTracker Deep Red (Life Technologies Corp.). HeLa cells were treated with LysoTracker, and then a fluorescence image thereof was obtained with a one-photon fluorescence microscope (TCS SP5 II, Leica, Germany). […]

The next data set relates to HeLa cells. The data set is described as follows: MTT assay cytotoxicity / cell viability. Format: cell-based. How it is done: The present inventors examine the cytotoxicity of Compound 4 (R1═R2═H), which is the fluorescent probe according to embodiments of the present invention, by treating HeLa cells (human uterine cancer cells) with the compound, and the results are provided in FIG. 5.
To examine the cytotoxicity of Compound 4, an MTT assay was conducted on the HeLa cells and the cell viability was assessed.
Specifically, the cells (100 μL/well) were prepared in a 96-well plate at the density of about 5×10^3 cells per well. The cells were treated with Compound 4 at the concentration of 10, 30, 50, or 100 μM, cultured for 1 hour, and then washed with a PBS buffer solution. 25 μL of a 5 mg/mL 3-(4,5-[…])-2,5-diphenyltetrazolium bromide (MTT) solution was put in each well. After culturing for 2 hours at 37° C., the medium was removed, formazan crystals were dissolved in dimethyl sulfoxide (DMSO), and the absorbance was measured using a plate reader. According to FIG. 5, Compound 4 was confirmed to have low cytotoxicity up to the concentration of 10 μM within 24 hours (about 8% of the cells died). In addition, even when the concentration of Compound 4 was increased to 100 μM, it was confirmed that cytotoxicity within 8 hours was low (about 20% of the cells died), which indicated the possibility of conducting experiments in the corresponding range.
In general terms: Formazan colour is commonly taken as a measure of viable cells.

Data set [2] can be described thus: Fluorescence ATP detection characteristic, ratiometric, in PBS solution. Here is the method:
Specifically, to observe the ATP detection characteristic of Compound 4, the present inventors measured a fluorescence spectrum (the fluorescence spectrum was obtained using a Photon Technical International Fluorescence System) by filling a quartz fluorescence cell (114F-QS, Hellma Analytics) with a 1 cm light path with a pH 5.5 PBS solution (with 0.1% acetonitrile) comprising 10 μM Compound 4 and ATP (0.0-1.0 mM), and graphs of the normalized fluorescence intensity (y-axis) with respect to the wavelength (x-axis) are shown in FIG. 2A. […] In addition, to assess the feasibility of quantification by a ratiometric detection system, the correlation between the ATP concentration (x-axis) and the fluorescence ratio (the ratio between two types of fluorescence) (y-axis) was provided in FIG. 2B. As appears in FIG. 2B, the proportional relationship between the ATP concentration and the ratio between two types of fluorescence proves the feasibility of quantification by a ratiometric detection system.
In order to assess the correlation between the ATP detection by Compound 4 and the pH of the solution, the present inventors measured a fluorescence spectrum (the fluorescence spectrum was obtained using a Photon Technical International Fluorescence System) by filling a quartz fluorescence cell (114F-QS, Hellma Analytics) with a 1 cm light path with a PBS solution (with 0.1% acetonitrile) with a pH range of 4.0 to 8.0 comprising 10 μM Compound 4 and ATP (0.0-1.0 mM), and graphs of the fluorescence ratio (y-axis) with respect to the pH (x-axis) are shown in FIG. 3A. According to FIG. 3A, the detectability changed with pH. It was observed that ATP was detected only under acidic conditions (pH 4.8-5.8) of lysosomes, which are the only organelles maintaining acidic conditions in cells, and was not detected at near-neutral pH (pH 7.0-7.5), which corresponds to the pH of most cells. In addition, the fluorescence ratio (y-axis) that changes with respect to the ATP concentration (x-axis) is provided for the pH range of 4.5 to 5.5 in FIG. 3B.

Data set [3] can be described thus: Absorption characteristic of fluorescent probe with and without ATP. The format is physicochemical. The settings on record: 10 μM, pH 5.5 PBS (0.1% acetonitrile). How it is done:
Specifically, to observe the absorption characteristic of the fluorescent probe, the present inventors measured an absorbance spectrum by filling, with a pH 5.5 PBS solution (with 0.1% acetonitrile) comprising 10 μM Compound 4, a quartz fluorescence cell (114F-QS, Hellma Analytics) with a 1 cm light path, and a graph of the absorbance (y-axis) with respect to the wavelength (x-axis) is shown in FIG. 1A. In addition, another absorbance spectrum was measured by filling a quartz fluorescence cell (114F-QS, Hellma Analytics) with a 1 cm light path with a pH 5.5 PBS solution (with 0.1% acetonitrile) comprising 10 μM Compound 4 and 1 mM ATP, and a graph of the absorbance (y-axis) with respect to the wavelength (x-axis) is shown in FIG. 1B. […] On the other hand, in FIG. 1B in which ATP was detected, a new absorption was observed near 540 nm in addition to 400 nm. The absorbance spectra were obtained using the HP 8453 UV/Vis spectrophotometer.

Data set [4] is described as follows: Selectivity of ATP detection among various cations and anions (fluorescence ratio). Particulars: 10 μM, pH 5.5 PBS, analytes at 1 mM. Here is the method:
In order to examine the selectivity of Compound 4 in ATP detection, the present inventors measured a fluorescence spectrum (the fluorescence spectrum was obtained using a Photon Technical International Fluorescence System) by filling a quartz fluorescence cell (114F-QS, Hellma Analytics) with a 1 cm light path with a pH 5.5 PBS solution (with 0.1% acetonitrile) comprising Compound 4 at 10 μM and various cations and anions (ATP, ADP, AMP, cytidine triphosphate (CTP), uridine triphosphate (UTP), guanosine triphosphate (GTP), thymine triphosphate (TTP), […] (PPi), phosphoric acid (H3PO4), nitrate anions (NO3^−), phosphate anions (PO4^3−), dithionite ion (S2O4^2−), sulfate ion (SO4^2−), acetate ion, nitrite ion (NO2^−), perchlorate ions (ClO4^−), citrate ions, monohydrogen phosphate ions (HPO4^2−), cyanide ions (CN^−), nickel ions (Ni^+), silver ions (Ag^+), manganese ions (Mn^2+), palladium ions (Pd^2+), cadmium ions (Cd^2+), cobalt ions (Co^3+), iron ions (Fe^+), zinc ion (Zn^2+), copper ion (Cu^2+), potassium ion (K^+), magnesium ion (Mg^2+), calcium ions (Ca^2+), sodium ions (Na^+), lead ions (Pb^2+), and chromium ions (Cr^3+)) at 1 mM, and the fluorescence ratios (y-axis) for various analytes (x-axis) were provided in FIG. 4.

Data set [5] has as its system lysosomal ATP in rat brain tissue. The data set is described as follows: Two-photon microscopic imaging of rat brain tissue treated with fluorescent probe. The settings on record: rat brain tissue slice, 30 μM, 20 minutes, 780 nm two-photon excitation. Here is the method:
The present inventors treated a rat brain tissue with Compound 4 (R1═R2═H), which is the fluorescent probe according to embodiments of the present invention and observed the changes in fluorescence through two-photon fluorescence microscopy, and the results are provided in FIG. 8. The scale bar in FIG. 8 is 80 μm.
Specifically, to obtain a two-photon fluorescence microscopic image of a rat tissue treated with Compound 4, an experiment was carried out under a condition of isolated from light (in a dark room) using a […] rat (5 weeks old, male, Samtako Inc.). The brain of the rat was dissected and washed with a PBS buffer solution, and then the individual organs were frozen with dry ice for 5 minutes. The frozen organs were broken with a hammer, and 50 μm-thick tissue slice samples were prepared using a cryostat machine (CM3000, Leica). […] The fluorescence was observed through two-photon fluorescence microscopy. The two-photon fluorescence microscope was configured with a 20× objective lens (HCX APO L 20×/1.00 W, Leica, Germany), and the observation was carried out using a Ti: Sapphire laser (Chameleon Ultra II, Coherent) with 6 mW laser output and at a 780 nm two-photon excitation wavelength.

The structures appear in SMILES notation.

On to `CCNc1cc2c(cc1C)C1(c3cc(C)c(NCC)cc3O2)c2ccccc2C(=O)N1CCNCCNCCNC1=C2C=CC=[N+]2[B-](F)(F)n2cccc21` [Compound 4, 10-((2-((2-((2-(3′,6′-bis(ethylamino)-2′,7′-dimethyl-3-oxospiro[isoindoline-1,9′-xanthen]-2-yl)ethyl)amino)ethyl)amino)ethyl)amino)-5,5-difluoro-5H-dipyrrolo[1,2-c:2′,1′-f][1,3,2]diazaborinin-4-ium-5-uide], for which, in data set [1], the lysosomal selectivity result is on record as “highly selective to lysosomes”. Besides, in data set [1] (10 μM Compound 4 and 50 nM LysoTracker, 1 hour), the “colocalization factor with LysoTracker” value is “about 0.95”. The “cytotoxicity, cells died” value is “about 20%” in the data set on HeLa cells (100 μM, within 8 hours) and “about 8%” in the data set with HeLa cells (up to 10 μM, within 24 hours). Besides, the “pH range in which ATP was detected” value in data set [2] (10 μM, PBS pH 4.0 to 8.0, ATP 0.0-1.0 mM, acidic conditions of lysosomes) is listed as 4.8-5.8 pH. For the same compound, the “change of fluorescence intensity near 550 nm as ATP concentration increased” value in data set [2] (10 μM, pH 5.5 PBS (0.1% acetonitrile), ATP 0.0-1.0 mM) is on record as “greatly increased”. Further, the “ATP detection at near-neutral pH” value in data set [2] (pH 7.0-7.5, 10 μM, ATP 0.0-1.0 mM) is reported as “not detected”. Besides, the “new absorption wavelength when ATP was detected” value in data set [3] (1 mM ATP, in addition to 400 nm) is approximately 540 nm. Moreover, in data set [3] (no ATP), the “single absorption wavelength of the fluorescent probe” value was approximately 400 nm. Besides, in data set [4], the “selectivity in ATP detection among various cations and anions” value is “highly selective to ATP”. Further, in data set [5], the “detection of lysosomal ATP in deep tissue” value is reported as “selectively detected lysosomal ATP”.
